From patent US10618903B2, “Heteroaryl substituted aminopyridine compounds” (BRISTOL-MYERS SQUIBB COMPANY, priority 2015, dated 2020)

Assays:
[1] = tested on: IL-6 levels in human whole blood stimulated with a TLR2 agonist; test: IRAK4 Whole Blood Assay (lipoteichoic acid/TLR2-stimulated IL-6); type: cell-based; conditions: lipoteichoic acid 10 μg/mL, IL-6 readout
Protocol: Human whole blood containing the anti-coagulant ACD-A was plated in 384-well plate (25 μL/well) and incubated with compounds for 60 minutes at 37° C. in a 5% CO2 incubator. The blood was stimulated with a TLR2 agonist, 10 μg/mL final concentration of lipoteichoic acid (Invivogen, San Diego, Calif.) in 25 μL RPMI (Gibco) for 5 hours in a 5% CO2 incubator. At the end of the incubation, plates were centrifuged at 2300 rpm for 5 minutes. Supernatants were harvested and analyzed for IL-6 levels by Flow Cytometry beads assay (BD Biosciences, San Jose, Calif.).

IRAK4 = IRAK4 (Homo sapiens (Human), UniProt Q9NWZ3); test: IRAK4 Inhibition Assay; type: biochemical; conditions: ATP 500 μM; IRAK4 0.6 nM
Outline: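 Mobility-shift readout: phosphorylated and unphosphorylated fluorescent peptide (1.5 μM) resolved by electrophoresis after a 60 min room-temperature reaction stopped with EDTA. Reaction holds 0.6 nM IRAK4, 500 μM ATP and 1.6% DMSO in HEPES pH 7.2/MgCl2/Brij 35/DTT buffer; percent inhibition set against vehicle and no-enzyme controls.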

IRAK4, sequence (Q9NWZ3 whole entry): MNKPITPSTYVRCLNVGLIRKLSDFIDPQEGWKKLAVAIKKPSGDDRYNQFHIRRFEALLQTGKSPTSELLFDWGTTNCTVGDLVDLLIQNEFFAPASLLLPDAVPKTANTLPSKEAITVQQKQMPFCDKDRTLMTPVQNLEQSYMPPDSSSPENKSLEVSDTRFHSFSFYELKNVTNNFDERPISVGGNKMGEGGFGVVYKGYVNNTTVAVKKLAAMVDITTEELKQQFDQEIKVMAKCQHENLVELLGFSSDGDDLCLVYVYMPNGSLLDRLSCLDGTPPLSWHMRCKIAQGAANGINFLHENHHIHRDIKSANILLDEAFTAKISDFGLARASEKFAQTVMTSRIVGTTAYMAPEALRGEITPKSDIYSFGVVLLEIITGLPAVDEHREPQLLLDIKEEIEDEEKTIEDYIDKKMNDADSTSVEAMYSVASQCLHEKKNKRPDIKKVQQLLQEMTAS

An EC50 ([1]; Homo sapiens) of 890 nM and an IC50 (IRAK4) of 5 nM were found for `CC(C)Nc1cc(-c2cnc3cc(C#N)cnn23)ncc1C(=O)NCC(F)C1CC(C)OC(C)C1` (stereo not shown) [Example 203, 6-(7-cyanoimidazo[1,2-b]pyridazin-3-yl)-N-(2-(2,6-dimethyltetrahydro-2H-pyran-4-yl)-2-fluoroethyl)-4-(isopropylamino)nicotinamide] in this work.

An EC50 ([1]; Homo sapiens) of 260 nM and an IC50 (IRAK4) of 2 nM were found for `CC(C)(O)[C@H](F)CNC(=O)c1cnc(-c2cnc3cc(C#N)cnn23)cc1N[C@H]1CC[C@H](C(C)(C)O)CC1` [Example 204, 6-(7-cyanoimidazo[1,2-b]pyridazin-3-yl)-N—((R)-2-fluoro-3-hydroxy-3-methylbutyl)-4-(((1r,4R)-4-(2-hydroxypropan-2-yl)cyclohexyl)amino)nicotinamide] in this work.

An EC50 ([1]; Homo sapiens) of 820 nM and an IC50 (IRAK4) of 4 nM were found for `CC(C)(O)[C@H](F)CNC(=O)c1cnc(-c2cnc3cc(Cl)cnn23)cc1NC1CC(F)(F)C1` [Example 206, (R)-6-(7-chioroimidazo[1,2-b]pyridazin-3-yl)-4-((3,3-difluorocyclobutyl)amino)-N-(2-fluoro-3-hydroxy-3-methylbutyl)nicotinamide] in this work.

An EC50 ([1]; Homo sapiens) of 550 nM and an IC50 (IRAK4) of 6 nM were found for `CC(C)(O)[C@H](F)CNC(=O)c1cnc(-c2cnc3cc(C#N)cnn23)cc1NC1CCC(F)C1` (stereo partly drawn) [Example 208, 6-(7-cyanoimidazo[1,2-b]pyridazin-3-yl)-N—((R)-2-fluoro-3-hydroxy-3-methylbutyl)-4-((3-fluorocyclopentyl)amino)nicotinamide] in this work.

An EC50 ([1]; Homo sapiens) of 610 nM and an IC50 (IRAK4) of 4 nM were found for `CC(C)Nc1cc(-c2cnc3cc(C(F)F)cnn23)ncc1C(=O)NC[C@H](F)C(C)(C)O` [Example 209, (S)-6-(7-(difluoromethyl)imidazo[1,2-b]pyridazin-3-yl)-N-(2-fluoro-3-hydroxy-3-methylbutyl)-4-(isopropylamino)nicotinamide] in this work.

An EC50 ([1]; Homo sapiens) of 980 nM and an IC50 (IRAK4) of 3 nM were found for `CC(C)(O)[C@H](F)CNC(=O)c1cnc(-c2cnc3cc(Cl)cnn23)cc1NCCC(F)F` [Example 210, (R)-6-(7-chloroimidazo[1,2-b]pyridazin-3-yl)-4-((3,3-difluoropropyl)amino)-N-(2-fluoro-3-hydroxy-3-methylbutyl)nicotinamide] in this work.

An EC50 ([1]; Homo sapiens) of 940 nM and an IC50 (IRAK4) of 2 nM were found for `CC(C)(O)[C@H](F)CNC(=O)c1cnc(-c2cnc3cc(C#N)cnn23)cc1NCCC(F)F` [Example 211, (R)-6-(7-cyanoimidazo[1,2-b]pyridazin-3-yl)-4-((3,3-difluoropropyl)amino)-N-(2-fluoro-3-hydroxy-3-methylbutyl)nicotinamide] in this work.

An EC50 ([1]; Homo sapiens) of 980 nM and an IC50 (IRAK4) of 3 nM were found for `CC(C)Nc1cc(-c2cnc3cc(F)cnn23)ncc1C(=O)NC[C@H](F)C(C)(C)O` [Example 212, (S)—N-(2-fluoro-3-hydroxy-3-methylbutyl)-6-(7-fluoroimidazo[1,2-b]pyridazin-3-yl)-4-(isopropylamino)nicotinamide] in this work.

An EC50 ([1]; Homo sapiens) of 890 nM and an IC50 (IRAK4) of 2 nM were found for `CC(C)Nc1cc(-c2cnc3cc(C#N)cnn23)ncc1C(=O)NCCc1cccs1` [Example 213, 6-(7-cyanoimidazo[1,2-b]pyridazin-3-yl)-4-(isopropylamino)-N-(2-(thiophen-2-yl)ethyl)nicotinamide] in this work.

An EC50 ([1]; Homo sapiens) of 480 nM and an IC50 (IRAK4) of 11 nM were found for `CC(C)Nc1cc(-c2cnc3cc(C#N)cnn23)ncc1C(=O)NCCCn1ccnc1` [Example 214, N-(3-(1H-imidazol-1-yl)propyl)-6-(7-cyanoimidazo[1,2-b]pyridazin-3-yl)-4-(isopropylamino)nicotinamide] in this work.

An EC50 ([1]; Homo sapiens) of 600 nM and an IC50 (IRAK4) of 4 nM were found for `CC(C)Nc1cc(-c2cnc3cc(C#N)cnn23)ncc1C(=O)NC1CCC(N(C)C)CC1` (stereo not shown) [Example 215, 6-(7-cyanoimidazo[1,2-b]pyridazin-3-yl)-N-(4-(dimethylamino)cyclohexyl)-4-(isopropylamino)nicotinamide] in this work.

An EC50 ([1]; Homo sapiens) of 450 nM and an IC50 (IRAK4) of 18 nM were found for `CC(=O)N[C@H]1CC[C@H](NC(=O)c2cnc(-c3cnc4cc(Cl)cnn34)cc2NC(C)C)CC1` [Example 219, N-((1r,4r)-4-acetamidocyclohexyl)-6-(7-chloroimidazo[1,2-b]pyridazin-3-yl)-4-(isopropylamino)nicotinamide] in this work.

An EC50 ([1]; Homo sapiens) of 340 nM and an IC50 (IRAK4) of 16 nM were found for `CC(=O)N[C@H]1CC[C@H](NC(=O)c2cnc(-c3cnc4cc(C#N)cnn34)cc2NC(C)C)CC1` [Example 220, N-((1r,4r)-4-acetamidocyclohexyl)-6-(7-cyanoimidazo[1,2-b]pyridazin-3-yl)-4-(isopropylamino)nicotinamide] in this work.

An EC50 ([1]; Homo sapiens) of 570 nM and an IC50 (IRAK4) of 14 nM were found for `C[C@@H](CF)Nc1cc(-c2cnc3cc(C#N)cnn23)ncc1C(=O)NCCC(C)(C)O` [Example 221, (S)-6-(7-cyanoimidazo[1,2-b]pyridazin-3-yl)-4-((1-fluoropropan-2-yl)amino)-N-(3-hydroxy-3-methylbutyl)nicotinamide] in this work.

An EC50 ([1]; Homo sapiens) of 630 nM and an IC50 (IRAK4) of 7 nM were found for `CC(C)(O)[C@H](F)CNC(=O)c1cnc(-c2cnc3cc(C(F)F)cnn23)cc1NC1COC1` [Example 222, (R)-6-(7-(difluoromethyl)imidazo[1,2-b]pyridazin-3-yl)-N-(2-fluoro-3-hydroxy-3-methylbutyl)-4-(oxetan-3-ylamino)nicotinamide] in this work.

An EC50 ([1]; Homo sapiens) of 810 nM and an IC50 (IRAK4) of 13 nM were found for `COC(=O)N[C@H]1CC[C@H](NC(=O)c2cnc(-c3cnc4cc(C#N)cnn34)cc2NC(C)C)CC1` [Example 223, methyl((1r,4r)-4-(6-(7-cyanoimidazo[1,2-b]pyridazin-3-yl)-4-(isopropylamino)nicotinamido)cyclohexyl)carbamate] in this work.

An EC50 ([1]; Homo sapiens) of 570 nM and an IC50 (IRAK4) of 7 nM were found for `COC(=O)N[C@H]1CC[C@H](NC(=O)c2cnc(-c3cnc4cc(C#N)cnn34)cc2NC2(C)CC2)CC1` [Example 224, methyl ((1r,4r)-4-(6-(7-cyanoimidazo[1,2-b]pyridazin-3-yl)-4-((1-methylcyclopropyl)amino)nicotinamido)cyclohexyl)carbamate] in this work.

An EC50 ([1]; Homo sapiens) of 570 nM and an IC50 (IRAK4) of 6 nM were found for `CC(C)n1cc(Nc2cc(-c3cnn4cc(Cl)cnc34)ncc2C(=O)NC[C@@H](F)C(C)(C)O)cn1` [Example 233, (R)-6-(6-chloropyrazolo[1,5-a]pyrimidin-3-yl)-N-(2-fluoro-3-hydroxy-3-methylbutyl)-4-((1-isopropyl-1H-pyrazol-4-yl)amino)nicotinamide] in this work.

An EC50 ([1]; Homo sapiens) of 540 nM and an IC50 (IRAK4) of 3 nM were found for `CC(C)(O)[C@H](F)CNC(=O)c1cnc(-c2cnn3cc(C#N)cnc23)cc1Nc1cnn(C(F)F)c1` [Example 234, (R)-6-(6-cyanopyrazolo[1,5-a]pyrimidin-3-yl)-4-((1-(difluoromethyl)-1H-pyrazol-4-yl)amino)-N-(2-fluoro-3-hydroxy-3-methylbutyl)nicotinamide] in this work.

An EC50 [1] of 690 nM and an IC50 (IRAK4) of 2 nM were found for `CC(C)(O)[C@H](F)CNC(=O)c1cnc(-c2cnn3cc(Cl)cnc23)cc1Nc1cnn(CC(F)(F)F)c1` [Example 237, (R)-6-(6-chloropyrazolo[1,5-a]pyrimidin-3-yl)-N-(2-fluoro-3-hydroxy-3-methylbutyl)-4-((1-(2,2,2-trifluoroethyl)-1H-pyrazol-4-yl)amino)nicotinamide] in this work.

An EC50 ([1]; Homo sapiens) of 930 nM and an IC50 (IRAK4) of 3 nM were found for `O=C(N[C@H]1CC[C@H](O)CC1)c1cnc(-c2cnn3cc(Cl)cnc23)cc1Nc1cnn(CC(F)F)c1` [Example 252, 6-(6-chloropyrazolo[1,5-a]pyrimidin-3-yl)-4-((1-(2,2-difluoroethyl)-1H-pyrazol-4-yl)amino)-N-((1r,4r)-4-hydroxycyclohexyl) nicotinamide] in this work.

An EC50 ([1]; Homo sapiens) of 470 nM and an IC50 (IRAK4) of 2 nM were found for `CC(C)(O)[C@H]1CC[C@H](NC(=O)c2cnc(-c3cnn4cc(Cl)cnc34)cc2Nc2cnn(C3CC3)c2)CC1` [Example 254, 6-(6-chloropyrazolo[1,5-a]pyrimidin-3-yl)-4-((1-cyclopropyl-1H-pyrazol-4-yl)amino)-N-((1r,4r)-4-(2-hydroxypropan-2-yl)cyclohexyl)nicotinamide] in this work.

An EC50 ([1]; Homo sapiens) of 720 nM and an IC50 (IRAK4) of 5 nM were found for `Cn1cc(Nc2cc(-c3cnn4cc(Cl)cnc34)ncc2C(=O)NCCC(C)(C)O)cn1` [Example 255, 6-(6-chloropyrazolo[1,5-a]pyrimidin-3-yl)-N-(3-hydroxy-3-methylbutyl)-4-((1-methyl-1H-pyrazol-4-yl)amino)nicotinamide] in this work.

An EC50 ([1]; Homo sapiens) of 790 nM and an IC50 (IRAK4) of 3 nM were found for `Cn1cc(Nc2cc(-c3cnn4cc(Cl)cnc34)ncc2C(=O)N[C@H]2CC[C@H](C(C)(C)O)CC2)cn1` [Example 256, 6-(6-chloropyrazolo[1,5-a]pyrimidin-3-yl)-N-((1r,4r)-4-(2-hydroxypropan-2-yl)cyclohexyl)-4-((1-methyl-1H-pyrazol-4-yl)amino)nicotinamide] in this work.

An EC50 ([1]; Homo sapiens) of 710 nM and an IC50 (IRAK4) of 14 nM were found for `COC(=O)N[C@H]1CC[C@H](NC(=O)c2cnc(-c3cnn4cc(Cl)cnc34)cc2Nc2cnn(C)c2)CC1` [Example 257, methyl ((1r,4r)-4-(6-(6-chloropyrazolo[1,5-a]pyrimidin-3-yl)-4-((1-methyl-1H-pyrazol-4-yl)amino)nicotinamido)cyclohexyl)carbamate] in this work.

An EC50 ([1]; Homo sapiens) of 910 nM and an IC50 (IRAK4) of 2 nM were found for `CC(C)(O)[C@H]1CC[C@H](NC(=O)c2cnc(-c3cnc4cc(Cl)cnn34)cc2Nc2cnn(CC(F)F)c2)CC1` [Example 264, 6-(7-chloroimidazo[1,2-b]pyridazin-3-yl)-4-((1-(2,2-difluoroethyl)-1H-pyrazol-4-yl)amino)-N-((1r,4r)-4-(2-hydroxypropan-2-yl)cyclohexyl)nicotinamide] in this work.
